Where two headings read alike, the source gives them in different places.

For data set [1] the following is noted: due to metabolic tability; cited from earlier work.
The conditions of data set [2]: cited from earlier work.
The conditions of data set [3]: cited from earlier work. The source holds these as a separate data set.
The conditions of data set [4]: cited from earlier work. The source holds these as a separate data set.
The test system of the next data set is IL-6 secretion. Kind of data set: Inhibitory activity on Bradykinin B1 agonist-induced secretion of IL-6 in human IMR-90 cells. In kind it is cell-based. The note with it: 30 min compound, stimulated with 0.1 μM Lys-[Des-Arg9]Bradykinin and 0.1 μM Sar-[D-Phe8]-des-Arg9-Bradykinin for 5 hours. The text has this:
(§1) Inhibitory activity on Bradykinin B1 agonist-induced secretion of IL-6 and IL-8 in human IMR-90 cells
(§2) The effect of the compound examples on secretion of the cytokine IL-6 and IL-8 has been investigated in the human foetal lung fibroblast IMR-90 cell line. Here the induction of the cytokine secretion was induced by the Bradykinin B1 agonists Lys-[Des-Arg9]Bradykinin (CAS 71800-36-7, Tocris Bioscience) and Sar-[D-Phe8]-des-Arg9-Bradykinin (CAS 126959-88-4, Tocris Bioscience) leading to the activation of the Bradykinin B1-driven signalling pathway. This effect is indicative for a strong anti-inflammatory mode of action in kinin driven inflammation.
(§3) IMR-90 cells were cultured in Eagle's Minimum Essential Medium (EMEM) containing 2 mM L-glutamine, 1 g/L glucose, 1.5 g/L NaHCO3, 1 mM sodium pyruvate and non-essential amino acids (ATCC, 30-2003™) supplemented with 10% FBS (Biochrom, S0615) and 50 U/mL Penicillin, 50 μg/mL Streptomycin (PAA, P11-010). The assay was performed in EMEM and a cell density of […] IMR-90 cells/96-well. The compound examples have been serial diluted in 100% DMSO and evaluated at 8 different concentrations within the range of 3 nM and 10 μM and a final DMSO concentration of 0.4%. The IMR-90 cells have been incubated with the respective concentration of the compound for 30 min. The enhanced secretion of IL-6 and IL-8 was induced by the stimulation of these cells with 0.1 μM Lys-[Des-Arg9]Bradykinin (Tocris, catalogue no. 3225) and 0.1 μM Sar-[D-Phe8]-des-Arg9-Bradykinin (Tocris, catalogue no. 3230) for 5 hours at 37° C. and 5% C02. Further, cells have been treated with Lys-[Des-Arg9]Bradykinin and Sar-[D-Phe8]-des-Arg9-Bradykinin as neutral control and with 0.1% DMSO as inhibitor control. The amount of IL-6 and IL-8 in the supernatant was determined using the Human Prolnflammatory Panel II (4-Plex) (MSD, K15025B) according to manufacturer's instruction. Briefly, supernatants were added onto assay plates and incubated at room temperature for 1-2 h with vigorous shaking at 600 rpm. Detection antibodies were then added onto the supernatants and incubated at room temperature for an additional 1-2 h with vigorous shaking at 600 rpm. Plates were washed three times with phosphate-buffered saline (PBS; 137 mM NaCl, 2.7 mM KCl, 6.5 mM Na2HPO4, 1.7 mM KH2P04) containing 0.05% Tween-20 (Bio-Rad, 161-0781) and electrochemiluminescence detected using the MSD Sector Imager 6000 plate reader. The cell viability was measured using the CellTiter-Glo Luminescent Assay (Promega, G7571) following the manufacturers protocol. Briefly, the CellTiter-Glo Reagent was diluted with PBS (1:1) and added directly to cells. After incubation and shaking for 10 minutes luminescent signal was measured which is proportional to the amount of ATP present.
(§4) The effect of the compound on the amount of secreted cytokine has been calculated as 100/(measured cytokine concentration of neutral control-measured cytokine concentration of inhibitor control)*(measured cytokine concentration of compound dose-measured cytokine concentration of inhibitor control). IC50 values are determined using 4-parameter-fit.
(§5) The compound examples were tested in triplicates per plate and the inhibitory activity was determined as the relation between neutral and inhibitor control in percent. IC50 values were calculated using the 4-parameter logistic model.

Data set [5] concerns the target T1, human Bradykinin B1 receptor (Homo sapiens, UniProt P46663).
T1 construct: host or cells: CHO-K1
T1 sequence (P46663 1-353): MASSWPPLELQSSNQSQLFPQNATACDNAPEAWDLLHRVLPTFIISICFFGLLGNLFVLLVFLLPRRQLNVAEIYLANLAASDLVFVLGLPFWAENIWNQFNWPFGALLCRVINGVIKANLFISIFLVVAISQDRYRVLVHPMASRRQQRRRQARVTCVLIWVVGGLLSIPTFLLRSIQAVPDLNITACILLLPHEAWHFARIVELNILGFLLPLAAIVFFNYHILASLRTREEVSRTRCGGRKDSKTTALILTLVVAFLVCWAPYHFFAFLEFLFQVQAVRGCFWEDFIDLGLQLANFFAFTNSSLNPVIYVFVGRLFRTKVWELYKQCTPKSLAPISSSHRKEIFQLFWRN
Briefly: Calcium flux Assay (FLIPR) with recombinant CHO-K1 cells expressing human Bradykinin B1 receptor, in presence (hB1 IC50) or absence (hB1 free IC50) of 0.1% BSA. In kind it is cell-based. (Calcium flux is commonly read through the fluorescence of an indicator in the cells.)

The next data set concerns IL-8 secretion. Kind of data set: Inhibitory activity on Bradykinin B1 agonist-induced secretion of IL-8 in human IMR-90 cells. In kind it is cell-based. Conditions: 30 min compound, stimulated with 0.1 μM Lys-[Des-Arg9]Bradykinin and 0.1 μM Sar-[D-Phe8]-des-Arg9-Bradykinin for 5 hours.
Text: as §1, §2, §3, §4, §5

Data set [6] deals with T2, native human Bradykinin B1 receptor (Homo sapiens, UniProt P46663).
T2 construct: which express native human Bradykinin B1 receptor after induction with human IL-10; Coriell Institute; host or cells: IMR-90 human foetal lung fibroblasts, cytokine-induced
T2 sequence (P46663 1-353): T1 sequence (P46663 1-353)
Kind of data set: Calcium flux Assay (FLIPR) with human fibroblasts expressing Bradykinin B1 receptor (hB1 IMR-90). In kind it is cell-based. Conditions: IMR-90 human fibroblasts expressing native Bradykinin B1 receptor. In outline: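 IMR-90 human foetal lung fibroblasts induced with 0.35 ng/mL […] for 3 h, Fluo-4/AM-loaded, preincubated with compound (8 concentrations, triplicate) for 30 min at 28 °C, then challenged with Lys-(Des-Arg)-bradykinin at EC90. Ca2+ fluorescence was read at 538 nm; full inhibition set by 20 µM Lys-(Des-Arg-Leu)-bradykinin; IC50 derived.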

[7] abbreviates: in absence of 0.1% BSA, read-out: hB1 free IC50.
The mark [8] stands for this setting: in presence of 0.1% BSA, read-out: hB1 IC50.

Turning to `C[C@@H](NC(=O)C1(NC(=O)C(F)(F)F)CC1)c1ccc(-c2cccc(Cl)c2C(=O)O)cc1F` [MK-0686], the pharmacokinetic profile result in data set [1] was “suboptimal”.
Regarding `C[C@@H]1CC[C@H](C)N1C(=O)c1ccc([C@@H](C)NC(=O)C2(NC(=O)c3cc(F)cc(C(F)(F)F)c3)CC2)c(F)c1`, the “pharmacokinetic profile in rat” value in data set [2] was “reasonable”. In addition, the human metabolic stability entry in data set [3] is “poor”. In data set [4], the aqueous solubility result was “reasonable”.
`O=C(Nc1ccc(-n2ccc(CC(F)(F)F)n2)c(-c2nnn[nH]2)c1)C1(c2ccc(C(F)(F)F)cc2F)CC1` [Example 389, 1-[2-fluoro-4-(trifluoromethyl)phenyl]-N-{3-(1H-tetrazol-5-yl)-4-[3-(2,2,2-trifluoroethyl)-1H-pyrazol-1-yl]phenyl}cyclo-propanecarboxa-mide]: the values for the IC50 (in the data set on IL-6 secretion; in data set [5] (setting [7]); in the data set on IL-8 secretion) were 253 nM, 11 nM and 258 nM, respectively.
In the same order, the values of `CC(C)(C)c1cn(-c2ccc(NC(=O)C3(c4ccc(OC(F)(F)F)cc4F)CC3)cc2-c2nnn[nH]2)cn1` [Example 404, N-[4-(4-tert-butyl-1H-imidazol-1-yl)-3-(1H-tetrazol-5-yl)phenyl]-1-[2-fluoro-4-(trifluoromethoxy)phenyl]cyclo-propanecarboxa-mide] are 69 nM, 6.36 nM and 59 nM.
In the same order, the values of `CC(C)(C)c1ccn(-c2ccc(NC(=O)C3(c4ccc(C(F)(F)F)cc4F)CC3)cc2-c2nnn[nH]2)n1` [Example 380, N-[4-(3-tert-Butyl-1H-pyrazol-1-yl)-3-(1H-tetrazol-5-yl)phenyl]-1-[2-fluoro-4-(trifluoromethyl)phenyl]cyclopro-panecarboxamide] are above 10000 nM, 30.8 nM and 345 nM.
Consider `CCOc1ncc(-c2ccc(NC(=O)C3(c4cccc(Cl)c4F)CC3)cc2-c2nnn[nH]2)cn1` [Example 183, 1-(3-chloro-2-fluorophenyl)-N-[4-(2-ethoxypyrimidin-5-yl)-3-(1H-tetrazol-5-yl)phenyl] cyclopropane-carboxamide], for which the figures for the IC50 in data set [6], in data set [5] (setting [7]) and in data set [5] (setting [8]) were 11.1 nM, 54.4 nM and 33 nM, respectively.
With `O=C(Nc1ccc(-c2ccc(C(F)(F)F)nc2)c(-c2nnn[nH]2)c1)C1(c2ccc(Cl)cc2)CC1` [Example 203, 1-(4-chlorophenyl)-N-{3-(1H-tetrazol-5-yl)-4-[6-(trifluoromethyl)pyridin-3-yl]phenyl} cyclopropane-carboxamide], the concentration for half-maximal inhibition (IC50) was 36.7 nM in data set [6] and 92.2 nM in data set [5] (setting [7]).
For the compound `O=C(Nc1cc(-c2nnn[nH]2)c(-c2ccc(C(F)(F)F)nc2)cc1O)C1(c2ccc(Cl)c(F)c2)CC1` [Example 224, 1-(4-chloro-3-fluorophenyl)-N-{2-hydroxy-5-(1H-tetrazol-5-yl)-4-[6-(trifluoromethyl)pyridin-3-yl]phenyl} cyclopropane-carboxamide], the IC50 came to 108 nM in data set [6] and 49.6 nM in data set [5] (setting [8]).
Regarding `CCCOc1ccc(-c2ccc(NC(=O)C3(c4ccc(C(F)(F)F)cc4)CC3)cc2-c2nnn[nH]2)cn1` [Example 111, N-[4-(6-propoxypyridin-3-yl)-3-(1H-tetrazol-5-yl)phenyl]-1-[4-(trifluoromethyl)phenyl] cyclopropane-carboxamide], the results for the IC50 in data set [6], in data set [5] (setting [7]) and in data set [5] (setting [8]) were 10.6 nM, 4.98 nM and 16.6 nM, respectively.
For the compound `COCc1ccc(-c2ccc(NC(=O)C3(c4ccc(C(F)(F)F)cc4)CC3)cc2-c2nnn[nH]2)cn1` [Example 126, N-{4-[6-(methoxymethyl)pyridin-3-yl]-3-(1H-tetrazol-5-yl)phenyl}-1-[4-(trifluoromethyl)phenyl] cyclopropane-carboxamide], the IC50 in data set [6] came out at 13.1 nM; in data set [5] (setting [8]) it was 21.9 nM.
Consider `O=C(Nc1ccc(-c2ccnc(C(F)(F)F)c2)c(-c2nnn[nH]2)c1)C1(c2ccc(C(F)(F)F)cc2F)CC1` [Example 173, 1-[2-fluoro-4-(trifluoromethyl)phenyl]-N-{3-(1H-tetrazol-5-yl)-4-[2-(trifluoromethyl)pyridin-4-yl]phenyl} cyclopropane-carboxamide], for which the values for the IC50 in data set [6] and in data set [5] (setting [7]) were 92.4 nM and 86.5 nM, respectively.
For `Cc1cc(-c2ccc(NC(=O)C3(c4ccc(C(F)(F)F)cc4F)CC3)cc2-c2nnn[nH]2)ccn1` [Example 212, 1-[2-fluoro-4-(trifluoromethyl)phenyl]-N-[4-(2-methylpyridin-4-yl)-3-(1H-tetrazol-5-yl)phenyl] cyclopropane carboxamide] the same measures were 3.92 nM and 2.77 nM.
In the same order, the values of `O=C(Nc1ccc(-c2ccc(C(F)(F)F)nc2)c(-c2nnn[nH]2)c1)C1(c2cccc(Cl)c2F)CC1` [Example 138, 1-(3-chloro-2-fluorophenyl)-N-{3-(1H-tetrazol-5-yl)-4-[6-(trifluoromethyl)pyridin-3-yl]phenyl} cyclopropane-carboxamide] are 102 nM and 51.3 nM.
With `CC(C)Oc1ccc(-c2ccc(NC(=O)C3(c4ccc(C(F)(F)F)cc4)CC3)cc2-c2nnn[nH]2)cn1` [Example 149, N-[4-(6-isopropoxy-pyridin-3-yl)-3-(1H-tetrazol-5-yl)phenyl]-1-[4-(trifluoromethyl)phenyl] cyclopropane-carboxamide], the IC50 in data set [6] worked out at 11.8 nM; in data set [5] (setting [7]), 6.35 nM; in data set [5] (setting [8]), 14.4 nM.
For `CCOc1ccc(-c2ccc(NC(=O)C3(C(F)(F)F)CC3)cc2-c2nnn[nH]2)cn1` [Example 91, N-[4-(6-ethoxypyridin-3-yl)-3-(1H-tetrazol-5-yl)phenyl]-1-(trifluoromethyl) cyclopropane-carboxamide] the same measures were 161 nM, 452 nM and 174 nM.
In the same order, the values of `CCOc1ccc(-c2ccc(NC(=O)C3(c4cccc(Cl)c4F)CC3)cc2-c2nnn[nH]2)cn1` [Example 73, 1-(3-chloro-2-fluorophenyl)-N-[4-(6-ethoxypyridin-3-yl)-3-(1H-tetrazol-5-yl)phenyl] cyclopropane-carboxamide] are 7.98 nM, 13.9 nM and 16.2 nM.

The term IC50 denotes the concentration needed to halve the response being measured.

These data come from US20210317092A1 (BAYER PHARMA AKTIENGESELLSCHAFT, priority 2016, published 2021).
